Test results from patent US11365192B2, “Pyridine compound substituted with azole” (TAISHO PHARMACEUTICAL CO., LTD., priority 2017, dated 2022).
pIC50: −log10 of the molar value.

Experiments:
[1] = target: human CYP4F2 (Homo sapiens (Human), UniProt P78329); assay: Inhibition test against 20-HETE producing enzyme CYP4F2 (luciferine derivative, luminescence); assay type: biochemical
In short: (§1)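 IC50 derived from luminescence after 60 min at room temperature with membrane fractions of E. coli expressing each human CYP (100 μg/mL protein). For CYP4A11, 60 μM luciferin derivative in 100 mM Tris-HCl pH 7.5 with NADPH-regenerating system; for CYP4F2, 2.5 μM substrate, 1 mM NADPH, 50 mM KPO4 pH 7.4.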

[2] = target: human CYP4A11 (Homo sapiens (Human), UniProt Q02928); assay: Inhibition test against 20-HETE producing enzyme CYP4A11 (luciferine derivative, luminescence); assay type: biochemical
Chain of human CYP4A11 (Q02928 5-519): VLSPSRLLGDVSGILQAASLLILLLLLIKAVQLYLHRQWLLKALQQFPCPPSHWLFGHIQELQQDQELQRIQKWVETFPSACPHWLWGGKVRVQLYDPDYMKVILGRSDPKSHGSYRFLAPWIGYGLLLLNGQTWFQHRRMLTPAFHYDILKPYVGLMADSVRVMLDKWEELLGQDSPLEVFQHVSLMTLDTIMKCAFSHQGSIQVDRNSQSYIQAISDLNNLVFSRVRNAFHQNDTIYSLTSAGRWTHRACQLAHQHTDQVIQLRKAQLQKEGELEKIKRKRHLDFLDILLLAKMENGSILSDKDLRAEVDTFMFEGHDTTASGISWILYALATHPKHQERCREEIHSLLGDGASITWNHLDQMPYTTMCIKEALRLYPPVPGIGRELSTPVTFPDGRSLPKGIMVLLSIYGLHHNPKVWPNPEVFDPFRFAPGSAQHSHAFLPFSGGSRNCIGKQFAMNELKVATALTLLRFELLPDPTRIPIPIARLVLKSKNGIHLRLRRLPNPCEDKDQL
In short: as §1

[3] = human CYP4F2, luciferine derivative, luminescence
[4] = human CYP4A11, luciferine derivative, luminescence
[5] = E. coli membrane fraction expressing human CYP4F2, 2.5 μM luciferine derivative, room temperature 60 minutes
[6] = E. coli membrane fraction expressing human CYP4A11, 60 μM luciferine derivative, room temperature 60 minutes

Chain of human CYP4F2 (P78329 5-520): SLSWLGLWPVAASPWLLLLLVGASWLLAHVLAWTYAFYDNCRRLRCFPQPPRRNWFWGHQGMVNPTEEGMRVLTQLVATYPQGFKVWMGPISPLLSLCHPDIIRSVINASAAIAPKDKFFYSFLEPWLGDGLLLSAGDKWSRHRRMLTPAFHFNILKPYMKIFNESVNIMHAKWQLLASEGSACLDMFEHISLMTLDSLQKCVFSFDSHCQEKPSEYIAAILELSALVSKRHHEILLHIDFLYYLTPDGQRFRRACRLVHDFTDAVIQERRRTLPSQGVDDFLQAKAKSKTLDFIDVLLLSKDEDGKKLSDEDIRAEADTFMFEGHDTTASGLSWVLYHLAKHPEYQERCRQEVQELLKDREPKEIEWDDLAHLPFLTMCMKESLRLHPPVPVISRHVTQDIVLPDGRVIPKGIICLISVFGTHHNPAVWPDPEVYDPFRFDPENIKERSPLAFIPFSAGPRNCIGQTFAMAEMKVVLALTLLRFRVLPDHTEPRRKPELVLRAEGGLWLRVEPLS

| SMILES | pIC50 [1, 3] | pIC50 [2, 4] | pIC50 [1, 5] | pIC50 [2, 6] |
| --- | --- | --- | --- | --- |
| O=C(O)c1ccc(CNC(=O)c2cccc(COc3ccc(-c4ccn[nH]4)nc3)c2)cc1 [Example 45-24] | 6.08 | 7.25 | – | – |
| O=C(O)c1cccc(CNC(=O)c2cccc(COc3ccc(-c4ccn[nH]4)nc3)c2)c1 [Example 45-25] | 6.43 | 7.40 | – | – |
| O=C(NCc1ccccc1C(=O)O)c1cccc(COc2ccc(-c3ccn[nH]3)nc2)c1 [Example 45-26] | 6.06 | 7.51 | – | – |
| O=C(O)C1CCN(C(=O)c2cccc(COc3ccc(-c4ccn[nH]4)nc3)c2)CC1 [Example 45-27] | 5.66 | 6.29 | – | – |
| O=C(O)[C@@H]1CCCN(C(=O)c2cccc(COc3ccc(-c4ccn[nH]4)nc3)c2)C1 [Example 45-28] | 5.43 | 6.57 | – | – |
| O=C(O)[C@H]1CCCN(C(=O)c2cccc(COc3ccc(-c4ccn[nH]4)nc3)c2)C1 [Example 45-29] | 5.31 | 6.77 | – | – |
| O=C(O)CC1CCN(C(=O)c2cccc(COc3ccc(-c4ccn[nH]4)nc3)c2)CC1 [Example 45-30] | 5.40 | 6.54 | – | – |
| O=C(O)CC1CCCN(C(=O)c2cccc(COc3ccc(-c4ccn[nH]4)nc3)c2)C1 (centres unmarked) [Example 45-31] | 5.60 | 6.43 | – | – |
| O=C(O)CC1CCCCN1C(=O)c1cccc(COc2ccc(-c3ccn[nH]3)nc2)c1 (centres unmarked) [Example 45-32] | 5.17 | 6.18 | – | – |
| O=C(O)C1CC2CCC(C1)N2C(=O)c1cccc(COc2ccc(-c3ccn[nH]3)nc2)c1 (centres unmarked) [Example 45-33] | 4.72 | 5.70 | – | – |
| O=C(O)[C@@H]1CCCN1C(=O)c1cccc(COc2ccc(-c3ccn[nH]3)nc2)c1 [Example 45-34] | 4.77 | 6.66 | – | – |
| O=C(O)[C@H]1CCCN1C(=O)c1cccc(COc2ccc(-c3ccn[nH]3)nc2)c1 [Example 45-35] | 4.89 | 5.49 | – | – |
| O=C(O)C1CCN(C(=O)c2cccc(COc3ccc(-c4ccn[nH]4)nc3)c2)C1 (centres unmarked) [Example 45-36] | 5.96 | 6.64 | – | – |
| O=C(c1cccc(COc2ccc(-c3ccn[nH]3)nc2)c1)N1CCC(F)(C(=O)O)C1 (centres unmarked) [Example 45-37] | 6.14 | 6.92 | – | – |
| O=C(c1cc(COc2ccc(-c3ccn[nH]3)nc2)ccn1)N1CCC(F)(C(=O)O)C1 (centres unmarked) [Example 45-38] | 6.52 | 6.51 | – | – |
| O=C(O)C[C@H]1CCN(C(=O)c2cccc(COc3ccc(-c4ccn[nH]4)nc3)c2)C1 [Example 45-39] | 5.85 | 6.33 | – | – |
| O=C(O)C[C@@H]1CCN(C(=O)c2cccc(COc3ccc(-c4ccn[nH]4)nc3)c2)C1 [Example 45-40] | 5.85 | 6.39 | – | – |
| O=C(O)CC1CN(C(=O)c2cccc(COc3ccc(-c4ccn[nH]4)nc3)c2)C1 [Example 45-41] | 5.74 | 6.70 | – | – |
| O=C(O)c1nc2c(o1)CN(C(=O)c1cccc(COc3ccc(-c4ccn[nH]4)nc3)c1)C2 [Example 45-42] | 7.47 | 6.35 | – | – |
| O=C(O)c1ncc2c(n1)CN(C(=O)c1cccc(COc3ccc(-c4ccn[nH]4)nc3)c1)C2 [Example 45-43] | 5.28 | 5.77 | – | – |

| SMILES | pIC50 [1, 3] | pIC50 [2, 4] | pIC50 [1, 5] | pIC50 [2, 6] |
| --- | --- | --- | --- | --- |
| O=C(O)c1cnn2c1CN(C(=O)c1cccc(COc3ccc(-c4ccn[nH]4)nc3)c1)CC2 [Example 45-44] | 5.46 | 6.96 | – | – |
| O=C(O)c1cc2n(n1)CCN(C(=O)c1cccc(COc3ccc(-c4ccn[nH]4)nc3)c1)C2 [Example 45-45] | 5.80 | 5.77 | – | – |
| O=C(O)c1nc2c(o1)CCN(C(=O)c1cccc(COc3ccc(-c4ccn[nH]4)nc3)c1)C2 [Example 45-46] | 7.27 | 6.80 | – | – |
| O=C(NCc1cc(O)no1)c1cccc(COc2ccc(-c3ccn[nH]3)nc2)c1 [Example 45-47] | – | – | 6.01 | 6.72 |
| CC(C)(CC(=O)N1CCC(COc2ccc(-c3ccn[nH]3)nc2)CC1)C(=O)O [Example 46-1, 2,2-Dimethyl-4-oxo-4-[4 [[6-(1H-pyrazol-5-yl)-3-pyridinyl]oxymethyl]-1-piperidinyl]butanoic Acid] | – | – | 5.12 | 5.49 |
| O=C(CCC12CC(C(=O)O)(C1)C2)N1CCC[C@@H](COc2ccc(-c3ccn[nH]3)nc2)C1 [Example 46-2] | – | – | 6.33 | 6.14 |
| O=C(O)C12CC(C(=O)N3CCC[C@@H](COc4ccc(-c5ccn[nH]5)nc4)C3)(C1)C2 [Example 46-3] | – | – | < 4.30 | 5.82 |
| O=C(O)C12CCC(C(=O)N3CCC[C@@H](COc4ccc(-c5ccn[nH]5)nc4)C3)(CC1)CC2 [Example 46-4] | – | – | 4.74 | 6.00 |
| O=C(O)c1cccc(CC(=O)N2CCC[C@@H](COc3ccc(-c4ccn[nH]4)nc3)C2)c1 [Example 46-5] | – | – | 5.12 | 6.55 |
| O=C(CCCC1(C(=O)O)CCCC1)N1CCC(COc2ccc(-c3ccn[nH]3)nc2)CC1 [Example 47-1, 1-[4-Oxo-4-[4-[[6-(1H-pyrazol-5-yl)-3-pyridinyl]oxymethyl]-1-piperidinyl]butyl]-1-cyclopentanecarboxylic Acid] | – | – | 6.82 | 6.08 |
| O=C(O)CCC(=O)N1CCC(COc2ccc(-c3ccn[nH]3)nc2)CC1 [Example 48-1, 4-Oxo-4-[4-[[6-(1H-pyrazol-5-yl)-3-pyridinyl]oxymethyl]-1-piperidinyl]butanoic Acid] | – | – | 4.96 | 6.21 |
| O=C(O)CCNC(=O)c1cc(COc2ccc(-c3ccn[nH]3)nc2)ccn1 [Example 49-1, 3-[[Oxo-[4-[[6-(1H-pyrazol-5-yl)-3-pyridinyl]oxymethyl]-2-pyridinyl]methyl]amino]propanoic Acid] | – | – | 5.96 | 5.92 |
| O=C(CCCCCCOc1ccc(-c2ccn[nH]2)nc1)NC1(C(=O)O)CCCC1 [Example 50-1, 1-[[1-Oxo-7-[[6-(1H-pyrazol-5-yl)-3-pyridinyl]oxy]heptyl]amino]-1-cyclopentanecarboxylic Acid] | – | – | 5.55 | 7.12 |
| COC(=O)N1CCC(O)(c2cccc(COc3ccc(-c4ccn[nH]4)nc3)c2)CC1 [Example 51-1, Methyl 4-hydroxy-4-[3-[[6-(1-H-pyrazol-5-yl)-3-pyridinyl]oxymethyl]phenyl]-1-piperidinecarboxylate] | – | – | 8.52 | 6.57 |
| CN(C)C(=O)N1CCC(O)(c2cccc(COc3ccc(-c4ccn[nH]4)nc3)c2)CC1 [Example 51-2] | – | – | 8.46 | 6.51 |
| CC(=O)N1CCC(O)(c2cccc(COc3ccc(-c4ccn[nH]4)nc3)c2)CC1 [Example 52-1, 1-[4-Hydroxy-4-[3-[[6-(1-H-pyrazol-5-yl)-3-pyridinyl]oxymethyl]phenyl]-1-piperidinyl]ethanone] | – | – | 8.36 | 6.15 |
| CC(=O)N1CC(O)(c2cccc(COc3ccc(-c4ccn[nH]4)nc3)c2)C1 [Example 52-2] | – | – | 7.30 | 6.28 |
| NC(=O)c1cccc(COc2ccc(-c3ccn[nH]3)nc2)c1 [Example 53-1, 3-[[6-(1H-Pyrazol-5-yl)-3-pyridinyl]oxymethyl]benzamide] | – | – | 6.72 | 6.96 |
| NC(=O)c1cc(COc2ccc(-c3n[nH]cc3Cl)nc2)ccn1 [Example 53-2] | – | – | 7.80 | 6.02 |
| CS(=O)(=O)NC(=O)CCCCCOc1ccc(-c2ccn[nH]2)nc1 [Example 54-1, N-Methylsulfonyl-6-[[6-(1H-pyrazol-5-yl)-3-pyridinyl]oxy]hexanamide] | – | – | 4.68 | 7.15 |
